Laboratory results reported in patent US20240132457A1, “3-(2-(BENZO[D]THIAZOL-2-YL)-2-(PHENYLSUFONAMIDO)ETHYL)BENZIMIDAMIDE DERIVATIVES AND RELATED COMPOUNDS AS TMPRSS2 INHIBITORS FOR THE TREATMENT OF VIRAL INFECTIONS” (INTEGERBIO, INC., priority 2020, published 2024).

How the values were obtained:
Format in all cases: biochemical
[1] = target: T1, Human TMPRSS2-(AA 106-492) (Homo sapiens, UniProt O15393); assay: TMPRSS2 Assay 2 (Example 42), 384-well primary assay; conditions: TMPRSS2 20 nM, substrate 40 μM, 150 min at room temperature
T1 construct: Human TMPRSS2-(AA 106-492)-; purchased CusaBio CSB-YP023924HU; host or cells: yeast
T1 sequence (O15393 106-492): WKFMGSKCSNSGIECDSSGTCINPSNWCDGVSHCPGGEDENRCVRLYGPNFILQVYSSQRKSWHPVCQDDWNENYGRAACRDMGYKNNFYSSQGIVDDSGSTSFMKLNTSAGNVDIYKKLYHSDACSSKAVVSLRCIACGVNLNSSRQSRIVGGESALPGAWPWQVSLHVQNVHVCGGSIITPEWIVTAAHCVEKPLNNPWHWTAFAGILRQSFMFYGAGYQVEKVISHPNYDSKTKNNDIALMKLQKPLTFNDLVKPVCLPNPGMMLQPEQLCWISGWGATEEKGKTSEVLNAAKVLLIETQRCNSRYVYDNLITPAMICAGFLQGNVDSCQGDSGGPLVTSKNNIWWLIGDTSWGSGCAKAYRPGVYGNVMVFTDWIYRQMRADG
Experimental: The concentration-response testing of compounds was in primary, readout counter as 11-point compound dilution series in 384-well assay plate format in triplicates (n=3). The compound dilutions was prepared in an intermediate plate (spot volume=150 nL), and then the assay reagents were prepared. After preparing the intermediate plates containing the assay reagents for the transfer into the assay plate using the Selma 384/25 μl pipettor, the assay reagents were transferred into the assay plate.
The resulting plate was centrifuged at g=290 for 30 s, and then the plate was incubated at room temperature for 150 minutes. 10 μl 2.5× of stop reagent (50 mM acetic acid) (Selma) was added, and then the plate was read on Safire e.
The materials, reagents, and equipment used for the assay is described in Table 3, Table 4, Table 5, and Table 6.
For the primary assay, the assay buffer (50 mM Tris-HCL, 150 mM NaCl, 0.01% Tween®20, pH8.0) was prepared using the stocks as described in Table 7.
The enzyme dilution was prepared as described in Table 8.
The final assay concentration was referred to 15 μl assay volume. Using a “greiner-dilution” as intermediate plate, the according wells were filled ([…]). The volume was adjusted using another plate type. Substrate dilution was prepared as described in Table 9.
The final assay concentration was referred to 15 μl assay volume. The DMSO concentration of the substrate working dilution was 1.2%. Using a “greiner-dilution” as intermediate plate, the according wells were filled (23 μl). Using another plate type, the volume was adjusted.
The compounds were dissolved in DM50. 150 nl of the compound were transferred into the assay plate prior to addition of the assay components (final assay volume of 15 μl).
The final concentration of the tool compound (low control) in the assay (assay volume l) was 0.8 μM. For the High control 5 μl/well […] was filled in column 6. The readout settings are described in Table 14. The readout was performed utilizing Safire^2 Microplate Reader. […]

[2] = target: Cathepsin B (Homo sapiens, UniProt P07858); assay: Non-TMPRSS2 protease panel: Cathepsin B; conditions: 10-dose, 3-fold from 10 μM
Experimental: (§1) Biochemical activity of compound 1 (racemic mixture, batch 1), compound 3 (racemic), compound 11, and compound 2 (enantiomer 1, batch 1) in proteases indicated in Table 21, Table 22, Table 23, and Table 24, respectively, were measured by testing the compounds in a 10-dose IC50 with a 3-fold series dilution starting at 10 μM against the proteases. The protease activities were monitored as a time-course measurement of the increase in fluorescence signal from fluorescently-labeled peptide substrate, and initial linear portion of slope (signal/min) was analyzed. The curve fits were performed when the activities at the highest concentration of compounds were less than 65%.

[3] = target: Cathepsin L (Homo sapiens, UniProt P07711); assay: Non-TMPRSS2 protease panel: Cathepsin L; conditions: 10-dose, 3-fold from 10 μM
Sequence of Cathepsin L (P07711 114-333): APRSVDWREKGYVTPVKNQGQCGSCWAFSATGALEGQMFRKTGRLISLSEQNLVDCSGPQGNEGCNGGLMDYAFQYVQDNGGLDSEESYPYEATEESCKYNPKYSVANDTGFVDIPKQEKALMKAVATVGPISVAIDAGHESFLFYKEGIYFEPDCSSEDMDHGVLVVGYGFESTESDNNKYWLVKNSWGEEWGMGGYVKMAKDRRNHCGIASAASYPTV
Experimental: as §1

[4] = target: T2, FVIIa (Homo sapiens, UniProt P08709); assay: Non-TMPRSS2 protease panel: FVIIa; conditions: 10-dose, 3-fold from 10 μM
T2 construct: Elastase, FVIIa, Fxa, FXIa
T2 sequence (P08709 213-466 limits assumed): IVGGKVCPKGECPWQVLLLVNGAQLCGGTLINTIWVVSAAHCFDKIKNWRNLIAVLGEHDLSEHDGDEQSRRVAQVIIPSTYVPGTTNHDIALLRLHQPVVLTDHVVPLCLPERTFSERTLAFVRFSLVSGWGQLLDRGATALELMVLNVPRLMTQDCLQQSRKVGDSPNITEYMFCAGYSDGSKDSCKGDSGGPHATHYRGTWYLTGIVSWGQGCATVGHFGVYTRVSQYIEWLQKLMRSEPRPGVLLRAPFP
T2 sequence (P08709 61-212 partner limits assumed): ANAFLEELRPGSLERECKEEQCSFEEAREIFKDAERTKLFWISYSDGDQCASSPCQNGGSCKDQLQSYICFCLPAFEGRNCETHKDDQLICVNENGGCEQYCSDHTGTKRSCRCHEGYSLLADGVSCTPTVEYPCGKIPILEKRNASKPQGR
Experimental: as §1

[5] = target: T3, FXIa (Homo sapiens, UniProt P03951); assay: Non-TMPRSS2 protease panel: FXIa; conditions: 10-dose, 3-fold from 10 μM
T3 construct: FVIIa, Fxa, FXIa, Furin
T3 sequence (P03951 388-625 limits assumed): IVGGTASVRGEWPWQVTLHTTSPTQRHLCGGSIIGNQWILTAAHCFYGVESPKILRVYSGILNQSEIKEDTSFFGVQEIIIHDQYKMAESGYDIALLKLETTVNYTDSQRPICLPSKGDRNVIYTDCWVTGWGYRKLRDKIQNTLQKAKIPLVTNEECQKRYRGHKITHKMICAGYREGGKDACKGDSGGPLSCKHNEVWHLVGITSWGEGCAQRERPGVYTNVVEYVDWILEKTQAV
T3 sequence (P03951 19-387 partner limits assumed): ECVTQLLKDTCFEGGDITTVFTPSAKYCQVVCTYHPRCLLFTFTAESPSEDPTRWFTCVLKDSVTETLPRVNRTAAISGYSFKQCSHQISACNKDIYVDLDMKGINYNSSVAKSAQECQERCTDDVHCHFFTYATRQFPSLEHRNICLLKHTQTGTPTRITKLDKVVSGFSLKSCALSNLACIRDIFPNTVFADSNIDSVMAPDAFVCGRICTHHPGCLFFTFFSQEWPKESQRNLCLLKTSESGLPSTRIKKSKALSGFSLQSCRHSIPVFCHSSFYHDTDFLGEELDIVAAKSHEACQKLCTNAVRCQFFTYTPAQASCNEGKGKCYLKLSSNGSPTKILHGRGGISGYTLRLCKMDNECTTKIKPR
Experimental: as §1

[6] = target: Kallikrein 1 (Homo sapiens, UniProt P06870); assay: Non-TMPRSS2 protease panel: Kallikrein 1; conditions: 10-dose, 3-fold from 10 μM
Sequence of Kallikrein 1 (P06870 25-262): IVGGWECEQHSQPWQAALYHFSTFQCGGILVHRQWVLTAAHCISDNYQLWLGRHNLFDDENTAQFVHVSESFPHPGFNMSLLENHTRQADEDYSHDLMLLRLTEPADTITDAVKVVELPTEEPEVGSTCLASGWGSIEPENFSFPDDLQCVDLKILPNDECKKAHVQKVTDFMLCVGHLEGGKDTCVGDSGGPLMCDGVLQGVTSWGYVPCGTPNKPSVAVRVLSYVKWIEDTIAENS
Experimental: as §1

[7] = target: T4, Kallikrein 13 (Homo sapiens, UniProt Q9UKR3); assay: Non-TMPRSS2 protease panel: Kallikrein 13; conditions: 10-dose, 3-fold from 10 μM
T4 sequence (Q9UKR3 17-277): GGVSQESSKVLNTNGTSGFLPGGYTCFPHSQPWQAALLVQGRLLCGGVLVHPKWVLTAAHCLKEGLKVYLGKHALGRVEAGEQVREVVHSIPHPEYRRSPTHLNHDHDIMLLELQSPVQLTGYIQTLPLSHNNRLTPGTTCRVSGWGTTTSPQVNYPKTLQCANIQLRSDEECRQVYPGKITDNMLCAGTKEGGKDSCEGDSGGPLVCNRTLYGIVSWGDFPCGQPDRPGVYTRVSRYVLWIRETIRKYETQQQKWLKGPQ
Experimental: as §1

[8] = target: MMP 13 (Homo sapiens, UniProt P45452); assay: Non-TMPRSS2 protease panel: MMP 13; conditions: 10-dose, 3-fold from 10 μM
Experimental: as §1

[9] = target: Plasma Kallikrein (Homo sapiens, UniProt P03952); assay: Non-TMPRSS2 protease panel: Plasma Kallikrein; conditions: 10-dose, 3-fold from 10 μM
Sequence of Plasma Kallikrein (P03952 391-638 limits assumed): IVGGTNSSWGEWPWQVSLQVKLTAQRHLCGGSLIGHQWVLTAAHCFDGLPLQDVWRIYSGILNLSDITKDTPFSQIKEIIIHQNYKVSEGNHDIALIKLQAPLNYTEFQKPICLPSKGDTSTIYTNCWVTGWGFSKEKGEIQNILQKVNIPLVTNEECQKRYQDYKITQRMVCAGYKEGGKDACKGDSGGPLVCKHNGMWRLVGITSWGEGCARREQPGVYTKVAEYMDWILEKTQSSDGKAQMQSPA
Sequence of Plasma Kallikrein (P03952 20-390 partner limits assumed): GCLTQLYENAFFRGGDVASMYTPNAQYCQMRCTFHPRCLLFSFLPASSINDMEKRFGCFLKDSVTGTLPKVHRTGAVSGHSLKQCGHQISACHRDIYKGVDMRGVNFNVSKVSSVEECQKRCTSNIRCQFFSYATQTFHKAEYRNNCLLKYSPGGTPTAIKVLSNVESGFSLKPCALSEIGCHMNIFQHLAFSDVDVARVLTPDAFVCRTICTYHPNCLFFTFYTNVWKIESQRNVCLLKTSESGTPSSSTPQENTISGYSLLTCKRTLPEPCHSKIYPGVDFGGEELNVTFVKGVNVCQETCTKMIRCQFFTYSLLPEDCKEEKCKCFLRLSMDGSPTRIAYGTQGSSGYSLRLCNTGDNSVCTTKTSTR
Experimental: as §1

[10] = target: Plasmin (Homo sapiens, UniProt P00747); assay: Non-TMPRSS2 protease panel: Plasmin; conditions: 10-dose, 3-fold from 10 μM
Sequence of Plasmin (P00747 581-810 limits assumed, species assumed): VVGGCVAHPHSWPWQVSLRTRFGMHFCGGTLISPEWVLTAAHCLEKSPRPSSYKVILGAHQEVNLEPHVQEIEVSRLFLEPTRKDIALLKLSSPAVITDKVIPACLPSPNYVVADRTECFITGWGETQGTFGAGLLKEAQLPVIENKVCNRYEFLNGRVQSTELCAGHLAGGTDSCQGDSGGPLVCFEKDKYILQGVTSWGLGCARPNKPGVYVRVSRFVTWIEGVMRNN
Sequence of Plasmin (P00747 97-580 partner limits assumed, species assumed): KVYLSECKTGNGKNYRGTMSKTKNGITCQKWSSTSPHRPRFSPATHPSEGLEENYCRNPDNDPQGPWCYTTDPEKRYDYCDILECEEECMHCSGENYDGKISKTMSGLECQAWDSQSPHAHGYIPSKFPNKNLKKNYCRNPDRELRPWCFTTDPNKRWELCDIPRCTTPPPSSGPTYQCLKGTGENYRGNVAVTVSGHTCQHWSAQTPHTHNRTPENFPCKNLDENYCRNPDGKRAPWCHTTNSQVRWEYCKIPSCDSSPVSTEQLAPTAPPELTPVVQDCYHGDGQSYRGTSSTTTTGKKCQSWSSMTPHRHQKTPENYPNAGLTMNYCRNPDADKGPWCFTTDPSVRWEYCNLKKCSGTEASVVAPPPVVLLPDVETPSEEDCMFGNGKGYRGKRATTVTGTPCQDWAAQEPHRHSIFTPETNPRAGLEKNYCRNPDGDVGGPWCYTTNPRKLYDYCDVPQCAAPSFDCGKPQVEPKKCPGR
Experimental: as §1

[11] = target: TACE (Homo sapiens, UniProt P78536); assay: Non-TMPRSS2 protease panel: TACE; conditions: 10-dose, 3-fold from 10 μM
Sequence of TACE (P78536 215-824): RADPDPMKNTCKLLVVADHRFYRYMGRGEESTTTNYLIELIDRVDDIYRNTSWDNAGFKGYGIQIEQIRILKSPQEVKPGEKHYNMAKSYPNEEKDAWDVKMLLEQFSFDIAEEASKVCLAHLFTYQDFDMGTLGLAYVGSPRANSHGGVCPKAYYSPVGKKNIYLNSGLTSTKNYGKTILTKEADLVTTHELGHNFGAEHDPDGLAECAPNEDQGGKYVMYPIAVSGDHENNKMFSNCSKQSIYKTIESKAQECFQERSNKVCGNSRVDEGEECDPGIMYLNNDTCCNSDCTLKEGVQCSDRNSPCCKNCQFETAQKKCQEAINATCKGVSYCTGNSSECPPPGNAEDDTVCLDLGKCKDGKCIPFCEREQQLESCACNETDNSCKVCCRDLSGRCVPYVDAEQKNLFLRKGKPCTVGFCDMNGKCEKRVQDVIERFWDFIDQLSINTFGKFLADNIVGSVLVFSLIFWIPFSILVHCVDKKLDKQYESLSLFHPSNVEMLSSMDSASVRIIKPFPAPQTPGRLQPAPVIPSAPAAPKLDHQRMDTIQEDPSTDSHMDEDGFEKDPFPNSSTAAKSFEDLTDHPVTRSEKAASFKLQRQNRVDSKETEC
Experimental: as §1

[12] = target: Tryptase g1 (Homo sapiens, UniProt Q9NRR2); assay: Non-TMPRSS2 protease panel: Tryptase g1; conditions: 10-dose, 3-fold from 10 μM
Sequence of Tryptase g1 (Q9NRR2 20-321): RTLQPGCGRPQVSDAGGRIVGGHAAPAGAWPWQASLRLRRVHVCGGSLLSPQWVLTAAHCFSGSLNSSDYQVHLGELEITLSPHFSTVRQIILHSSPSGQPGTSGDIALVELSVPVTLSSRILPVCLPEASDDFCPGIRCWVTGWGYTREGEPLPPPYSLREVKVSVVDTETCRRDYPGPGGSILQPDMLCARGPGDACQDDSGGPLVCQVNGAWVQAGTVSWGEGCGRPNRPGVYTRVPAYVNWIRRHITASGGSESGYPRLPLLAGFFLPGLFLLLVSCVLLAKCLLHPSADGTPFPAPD
Experimental: as §1

N=C(N)c1cccc(CC(NS(=O)(=O)c2ccccc2)c2nc3ccccc3s2)c1 (racemic) [1 (racemic mixture, batch 1), 3-[2-Benzenesulfonamido-2-(1,3-benzothiazol-2-yl)ethyl]benzene-1-carboximidamide]
IC50 [1]: < 30 µM
IC50 [2]: > 10 µM
IC50 [3]: > 10 µM
IC50 ([4]; FVIIa): > 10 µM
IC50 ([5]; FXIa): > 10 µM
IC50 [6]: < 10 µM
IC50 [7]: > 10 µM
IC50 [8]: > 10 µM
IC50 [9]: > 10 µM
IC50 [10]: > 10 µM
IC50 [11]: > 10 µM
IC50 [12]: > 10 µM

N=C(N)c1cccc(CC(NS(=O)(=O)c2cccc(-c3ccc(Cl)cc3Cl)c2)c2nc3ccccc3s2)c1 (racemic) [3 (racemic), 3-[2-(1,3-Benzothiazol-2-yl)-2-{2′,4′-dichloro-[1,1′-biphenyl]-3-sulfonamido}ethyl]benzene-1-carboximidamide]
IC50 [1]: > 30 µM
IC50 [2]: > 10 µM
IC50 [3]: > 10 µM
IC50 ([4]; FVIIa): > 10 µM
IC50 ([5]; FXIa): > 10 µM
IC50 [6]: > 10 µM
IC50 [7]: > 10 µM
IC50 [8]: > 10 µM
IC50 [9]: > 10 µM
IC50 [10]: > 10 µM
IC50 [11]: > 10 µM
IC50 [12]: < 10 µM

N=C(N)c1cccc(C[C@H](NS(=O)(=O)c2ccccc2)c2nnco2)c1 (single isomer, unassigned) [Compound 2 (enantiomer 1, batch 1), 3-[2-Benzenesulfonamido-2-(1,3,4-oxadiazol-2-yl)ethyl]benzene-1-carboximidamide]
IC50 [1]: > 30 µM
IC50 [2]: > 10 µM
IC50 [3]: > 10 µM
IC50 ([4]; FVIIa): > 10 µM
IC50 ([5]; FXIa): > 10 µM
IC50 [6]: > 10 µM
IC50 [7]: > 10 µM
IC50 [8]: > 10 µM
IC50 [9]: > 10 µM
IC50 [10]: > 10 µM
IC50 [11]: > 10 µM
IC50 [12]: > 10 µM

COc1ccc2nc(C(Cc3cccc(C(=N)N)c3)NS(=O)(=O)c3ccccc3)sc2c1 (centres unmarked) [Compound 11, 3-[2-Benzenesulfonamido-2-(6-methoxy-1,3-benzothiazol-2-yl)ethyl]benzene-1-carboximidamide]
IC50 [2]: > 10 µM
IC50 [3]: > 10 µM
IC50 ([4]; Factor VIIa): > 10 µM
IC50 ([5]; Factor XIa): > 10 µM
IC50 [6]: < 10 µM
IC50 [7]: > 10 µM
IC50 [8]: > 10 µM
IC50 [9]: > 10 µM
IC50 [10]: > 10 µM
IC50 [11]: > 10 µM
IC50 [12]: > 10 µM
